According to US20090318424A1, “NOVEL COMPOUNDS” (priority 2006, published 2009):
Where a name gives a salt, the structure may show the parent alone.

tested on: influx of neutrophils to the lung in LPS-challenged rats; assay: Rat LPS neutrophilia model; type: in vivo; conditions: LPS aerosol 100 ug/ml 15 min, lavage 4 hours later; in at least one of the range of conditions tested
Protocol: The effect of compounds on the influx of neutrophils to the lung in LPS-challenged rats is evaluated as follows. The test compound is suspended in one of the following solutions: 0.5% tween 80/PBS, 0.5% tween 80/saline, 10% EtOH/saline (with pH adjusted to 2.0, or 8.0 with HCl, or unadjusted), Saline @ pH 2.0, 6.5 or 8.0, 0.5% Tragacanth, 1% DMSO/20% Encapsin/Saline, or acidified 5% Tragacanth. The suspension process may be aided by the use of a glass homogenizer. For intratracheal administration, the animals are anesthetized with inhaled isoflurane and placed in a supine position, the trachea is intubated with a steel gavage needle (1.5 inch, 22 gauge, small ball) or a Penn-Century Microsprayer Aerosolizer (model IA-IB) and 200 ul of dosing solution is delivered. The animals are visually monitored during the recovery process, which typically occurs within two minutes.
Rats treated with compound or vehicle (15 min-24 hours pretreatment) are exposed to an LPS aerosol (100 ug/ml) for 15 min. Four hours later the rats are euthanized with pentobarbital (100 mg/kg, i.p.) and the airways are lavaged with 5 washes of 5 ml of phosphate buffered saline. The harvested cells are stained (Diffquick) and counted to determine total and differential cell data. In a typical study, macrophages represent 40-70% of the total cells, and polymorphonuclear cells 30-60% of the total cells. Inhibition of neutrophil levels relative to no compound controls is calculated based on the differential counts.
The assay has varying conditions, such as concentration, pretreat time, form of the compound (crystalline, amorphous, salts, micronised), and a wet or dry application of the compound. The data is obtained as % inhibition using a particular concentration and pretreat time.

| SMILES | inhibition of neutrophilia |
| --- | --- |
| CN(C)CCNc1nc(-c2cccc(C(=O)Nc3ccccc3)c2)c2c(n1)N(c1c(F)cccc1F)C(=O)NC2 [Example 91, 3-(8-(2,6-difluorophenyl)-2-{[2-(dimethylamino)ethyl]amino}-7-oxo-5,6,7,8-tetrahydropyrimido[4,5-d]pyrimidin-4-yl)-N-phenylbenzamide] | statistically significant inhibition |
| Cc1ccc(C(=O)Nc2ccc(F)cc2)cc1-c1nc(N2CCC(N3CCCCC3)CC2)nc2c1CNC(=O)N2c1c(F)cccc1F [87(b), 3-[2-(1,4′-bipiperidin-1′-yl)-8-(2,6-difluorophenyl)-7-oxo-5,6,7,8-tetrahydropyrimido[4,5-d]pyrimidin-4-yl]-N-(4-fluorophenyl)-4-methylbenzamide] | statistically nonsignificant inhibition |
| Cc1ccc(C(=O)Nc2ccc(F)cc2)cc1-c1nc(NCCCN(C)C)nc2c1CNC(=O)N2c1c(F)cccc1F [Example 42, 3-(8-(2,6-difluorophenyl)-2-{[3-(dimethylamino)propyl]amino}-7-oxo-5,6,7,8-tetrahydropyrimido[4,5-d]pyrimidin-4-yl)-N-(4-fluorophenyl)-4-methylbenzamide] | statistically significant inhibition |
| CCN(CC)CCCNc1nc(-c2cc(C(=O)Nc3ccc(F)cc3)ccc2C)c2c(n1)N(c1c(F)cccc1F)C(=O)NC2 [Example 43, 3-[2-{[3-(diethylamino)propyl]amino}-8-(2,6-difluorophenyl)-7-oxo-5,6,7,8-tetrahydropyrimido[4,5-d]pyrimidin-4-yl]-N-(4-fluorophenyl)-4-methylbenzamide] | inactive |
| CCc1ccc(C(=O)Nc2nccs2)cc1-c1nc(NCCN(C)C)nc2c1CNC(=O)N2c1c(F)cccc1F [Example 144, 3-(8-(2,6-difluorophenyl)-2-{[2-(dimethylamino)ethyl]amino}-7-oxo-5,6,7,8-tetrahydropyrimido[4,5-d]pyrimidin-4-yl)-4-ethyl-N-1,3-thiazol-2-ylbenzamide Trilfluoroacetate] | statistically significant inhibition |
| CSc1ccc(NC(=O)c2ccc(C)c(-c3nc(NCCN(C)C)nc4c3CNC(=O)N4c3c(F)cccc3F)c2)cc1 [Example 127, 3-(8-(2,6-difluorophenyl)-2-{[2-(dimethylamino)ethyl]amino}-7-oxo-5,6,7,8-tetrahydropyrimido[4,5-d]pyrimidin-4-yl)-4-methyl-N-[4-(methylthio)phenyl]benzamide] | statistically significant inhibition |
| Cc1ccc(C(=O)Nc2ccc(F)cc2)cc1-c1nc(NC2CCN(C)CC2)nc2c1CNC(=O)N2c1c(F)cccc1F [Example 39, 3-{8-(2,6-difluorophenyl)-2-[(1-methyl-4-piperidinyl)amino]-7-oxo-5,6,7,8-tetrahydropyrimido[4,5-d]pyrimidin-4-yl}-N-(4-fluorophenyl)-4-methylbenzamide] | statistically nonsignificant inhibition |
| Cc1ccc(C(=O)Nc2ccc(F)cc2)cc1-c1nc(N2CCC(N3CCCC3)CC2)nc2c1CNC(=O)N2c1c(F)cccc1F [86(c), 3-{8-(2,6-difluorophenyl)-7-oxo-2-[4-(1-pyrrolidinyl)-1-piperidinyl]-5,6,7,8-tetrahydropyrimido[4,5-d]pyrimidin-4-yl}-N-(4-fluorophenyl)-4-methylbenzamide] | statistically nonsignificant inhibition |
| COc1ccc(NC(=O)c2ccc(C)c(-c3nc(NCCN(C)C)nc4c3CNC(=O)N4c3c(F)cccc3F)c2)cn1 [Example 140, 3-(8-(2,6-difluorophenyl)-2-{[2-(dimethylamino)ethyl]amino}-7-oxo-5,6,7,8-tetrahydropyrimido[4,5-d]pyrimidin-4-yl)-4-methyl-N-[6-(methyloxy)-3-pyridinyl]benzamide] | statistically significant inhibition |
| CSc1nc(-c2cc(NC(=O)c3ccsc3)ccc2C)c2c(n1)N(c1c(F)cccc1F)C(=O)NC2 [7(c), N-{3-[8-(2,6-Difluorophenyl)-2-(methylthio)-7-oxo-5,6,7,8-tetrahydropyrimido[4,5-d]pyrimidin-4-yl]-4-methylphenyl}-3-thiophenecarboxamide] | inactive |
| Cc1ccc(C(=O)NC(C)C)cc1-c1nc(N2CCCN(C)CC2)nc2c1CNC(=O)N2c1c(F)cccc1F [Example 179, 3-[8-(2,6-difluorophenyl)-2-(4-methylhexahydro-1H-1,4-diazepin-1-yl)-7-oxo-5,6,7,8-tetrahydropyrimido[4,5-d]pyrimidin-4-yl]-4-methyl-N-(1-methylethyl)benzamide Trifluoroacetate] | statistically nonsignificant inhibition |
| Cc1ccc(C(=O)Nc2nccs2)cc1-c1nc(NCCCN(C)C)nc2c1CNC(=O)N2c1c(F)cccc1F [Example 119, 3-(8-(2,6-difluorophenyl)-2-{[3-(dimethylamino)propyl]amino}-7-oxo-5,6,7,8-tetrahydropyrimido[4,5-d]pyrimidin-4-yl)-4-methyl-N-1,3-thiazol-2-ylbenzamide] | statistically significant inhibition |
| Cc1ccc(C(=O)NC(C)C)cc1-c1nc(NCCCN(C)C)nc2c1CNC(=O)N2c1c(F)cccc1F [Example 40, 3-(8-(2,6-difluorophenyl)-2-{[3-(dimethylamino)propyl]amino}-7-oxo-5,6,7,8-tetrahydropyrimido[4,5-d]pyrimidin-4-yl)-4-methyl-N-(1-methylethyl)benzamide] | statistically significant inhibition |
| Cc1ccc(C(=O)Nc2ccc(F)cc2)cc1-c1nc(N(C)CCN(C)C)nc2c1CNC(=O)N2c1c(F)cccc1F [Example 32, 3-{8-(2,6-difluorophenyl)-2-[[2-(dimethylamino)ethyl](methyl)amino]-7-oxo-5,6,7,8-tetrahydropyrimido[4,5-d]pyrimidin-4-yl}-N-(4-fluorophenyl)-4-methylbenzamide] | statistically nonsignificant inhibition |
| Cc1ccc(C(=O)NC(C)C)cc1-c1nc(N2CCC(N3CCCCC3)CC2)nc2c1CNC(=O)N2c1c(F)cccc1F [Example 57, 3-[2-(1,4′-bipiperidin-1′-yl)-8-(2,6-difluorophenyl)-7-oxo-5,6,7,8-tetrahydropyrimido[4,5-d]pyrimidin-4-yl]-4-methyl-N-(1-methylethyl)benzamide] | statistically nonsignificant inhibition |
| Cc1ccc(C(=O)Nc2ccc(F)cc2)cc1-c1nc(N(C)CCCN(C)C)nc2c1CNC(=O)N2c1c(F)cccc1F [Example 9, 3-{8-(2,6-difluorophenyl)-2-[[3-(dimethylamino)-propyl](methyl)amino]-7-oxo-5,6,7,8-tetrahydropyrimido[4,5-d]pyrimidin-4-yl}-N-(4-fluorophenyl)-4-methylbenzamide] | statistically nonsignificant inhibition |
| Cc1ccc(C(=O)NC(C)C)cc1-c1nc(N(C)CCCN(C)C)nc2c1CNC(=O)N2c1c(F)cccc1F [34(d), 3-{8-(2,6-difluorophenyl)-2-[[3-(dimethylamino)propyl](methyl)amino]-7-oxo-5,6,7,8-tetrahydropyrimido[4,5-d]pyrimidin-4-yl}-4-methyl-N-(1-methylethyl)benzamide] | statistically nonsignificant inhibition |
| Cc1c(F)cc(C(=O)Nc2ccccc2)cc1-c1nc(NCCN(C)C)nc2c1CNC(=O)N2c1c(F)cccc1F [Example 112, 3-(8-(2,6-difluorophenyl)-2-{[2-(dimethylamino)ethyl]amino}-7-oxo-5,6,7,8-tetrahydropyrimido[4,5-d]pyrimidin-4-yl)-5-fluoro-4-methyl-N-phenylbenzamide] | statistically significant inhibition |
| Cc1ccc(C(=O)NC(C)C)cc1-c1nc(N2CCC(N3CCC(C)CC3)CC2)nc2c1CNC(=O)N2c1c(F)cccc1F [Example 70, 3-[8-(2,6-difluorophenyl)-2-(4-methyl-1,4′-bipiperidin-1′-yl)-7-oxo-5,6,7,8-tetrahydropyrimido[4,5-d]pyrimidin-4-yl]-4-methyl-N-(1-methylethyl)benzamide] | statistically significant inhibition |
| Cc1ccc(C(=O)Nc2ccc(F)cc2)cc1-c1nc(NCCN(C)C)nc2c1CNC(=O)N2c1c(F)cccc1F [8(c), 3-(8-(2,6-difluorophenyl)-2-{[2-(dimethylamino)ethyl]amino}-7-oxo-5,6,7,8-tetrahydropyrimido[4,5-d]pyrimidin-4-yl)-N-(4-fluorophenyl)-4-methylbenzamide] | statistically significant inhibition |
| CCCNC(=O)c1ccc(C)c(-c2nc(N(C)CCCN(C)C)nc3c2CNC(=O)N3c2c(F)cccc2F)c1 [Example 53, 3-{8-(2,6-difluorophenyl)-2-[[3-(dimethylamino)propyl](methyl)amino]-7-oxo-5,6,7,8-tetrahydropyrimido[4,5-d]pyrimidin-4-yl}-4-methyl-N-propylbenzamide] | statistically nonsignificant inhibition |
